Data taken from US8608967B2, “Multiple stationary phase matrix and uses thereof” (The Board of Trustees of the University of Arkansas, priority 2011, dated 2013).

Test: Dual-phase UHPLC-MS/MS profiling of warfarin and hydroxywarfarins in plasma of patients receiving warfarin
Settings: for presence of metabolite in human plasma (in words): four plasma samples of patients receiving warfarin
Protocol: Human plasma samples were processed as described previously (Wikoff et al., Proc Natl Acad Sci, 2009, 106:3698). […] Following equilibration, ice cold 0.2% formic acid in H2O (190 μL) was added to each sample, followed by ice cold 0.2% formic acid in acetonitrile (1000 μL). Samples were allowed to precipitate at 4° C. for 30 minutes, followed by centrifugation (10 min at 16,000 g) in a microcentrifuge. The supernatant (1000 μL) was then transferred to a new vial and dried down in a speed vacuum concentrator. Plasma extracts were resolubilized (40 μL) in mobile phase (55% methanol, 45% H2O with 0.01% formic acid) maintaining a 1:1 ratio with the original volume of plasma.
Standard curves containing all hydroxywarfarins and deuterated internal standards were prepared in potassium phosphate (50 mM, pH 7.4) and analyzed in triplicate with the assay conditions described above. […] The limit of quantification (LOQ) was defined as 5 times the LOD. Metabolite concentrations calculated to be below the limit of quantification were reported as LOQ.
All samples were from males and are referred to as M61, […], […], and M80, respectively. Plasma samples were extracted as described above, and analyzed independently on three separate days.

Structure (SMILES) | presence of metabolite in human plasma (in words) | total plasma concentration compared with S-7-hydroxywarfarin (patients M61 and M75, 10-hydroxywarfarin derived from both R and S-warfarin) | most abundant metabolite in plasma (patients M76 and M80)
CC(=O)C(O)[C@H](c1ccccc1)c1c(O)c2ccccc2oc1=O (single isomer, unassigned) [R10a] | major observed metabolites | – | –
CC(=O)C(O)[C@H](c1ccccc1)c1c(O)c2ccccc2oc1=O (single isomer, unassigned) [R10b] | major observed metabolites | – | –
CC(=O)CC(c1ccc(O)cc1)c1c(O)c2ccccc2oc1=O (stereo not drawn) [4″-hydroxywarfarin] | observed in some samples, but was below the limit of quantitation | – | –
CC(=O)CC(c1ccccc1)c1c(O)c2cccc(O)c2oc1=O (stereo not drawn) [8-hydroxywarfarin] | below the limit of detection | – | –
CC(=O)C(O)C(c1ccccc1)c1c(O)c2ccccc2oc1=O (stereo not drawn) [10-hydroxywarfarin] | – | higher than S-7-hydroxywarfarin concentrations | –
CC(=O)C[C@H](c1ccccc1)c1c(O)c2ccc(O)cc2oc1=O [R7, R-7-hydroxywarfarin] | observed in all four plasma samples | – | –
CC(=O)C[C@@H](c1ccccc1)c1c(O)c2ccc(O)cc2oc1=O [S7, S-7-hydroxywarfarin] | major observed metabolites | – | the most abundant metabolite
CC(=O)C(O)[C@@H](c1ccccc1)c1c(O)c2ccccc2oc1=O (stereo partly drawn) [S10a] | detected but below the limit of quantitation | – | –
